In patent US8399482B2, “6-substituted isoquinolines and isoquinolinones” (Sanofi, priority 2008, dated 2013):

Assays:
[1] = biological target: T1, human recombinant ROCK II (Homo sapiens, UniProt O75116); assay: Determination of Rho kinase inhibition (ROCK II, Caliper peptide phosphorylation assay); type: biochemical; conditions: respective form (salt or free base) as obtained in the examples, 60 min at 32° C.
T1 construct: recombinant human ROCK-II residues 11-552; His6 (N); purchased Millipore GmbH, Schwalbach, Germany
Procedure, shortened: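 Enzyme: active N-terminal His6-tagged recombinant human ROCK-II, residues 11-552. Substrate: a fluorescein-labelled peptide, with ATP. IC50 values were determined.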

recombinant human PKA = biological target: T2, recombinant human PKA (Homo sapiens, UniProt P17612); assay: Determination of Protein Kinase A inhibition (selectivity); type: biochemical; conditions: from IC50 values
T2 construct: recombinant human PKA (residues 1-351, N-terminal His-tag); His-tag (N); purchased Invitrogen, Karlsruhe, Germany
Procedure, shortened: (§1)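 Full-length His-tagged PKG1-beta and His-tagged PKA (residues 1-351) assayed in Tris-HCl pH 7.4 with fluorescein-labelled peptide and ATP (diluted to 3 μM and 120 μM before mixing), 60 min at 32° C. EDTA-stopped; substrate phosphorylation detected by Caliper mobility-shift separation, giving IC50 values.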

[2] = biological target: T3, recombinant human PKG1-beta (Homo sapiens, UniProt Q13976); assay: Determination of Protein Kinase G inhibition (selectivity); type: biochemical; conditions: from IC50 values
T3 construct: PKG1-beta (full-length, with N-terminal His-tag); His-tag (N); purchased Millipore GmbH, Schwalbach, Germany
T3 sequence (Q13976 1-686 isoform Q13976-2): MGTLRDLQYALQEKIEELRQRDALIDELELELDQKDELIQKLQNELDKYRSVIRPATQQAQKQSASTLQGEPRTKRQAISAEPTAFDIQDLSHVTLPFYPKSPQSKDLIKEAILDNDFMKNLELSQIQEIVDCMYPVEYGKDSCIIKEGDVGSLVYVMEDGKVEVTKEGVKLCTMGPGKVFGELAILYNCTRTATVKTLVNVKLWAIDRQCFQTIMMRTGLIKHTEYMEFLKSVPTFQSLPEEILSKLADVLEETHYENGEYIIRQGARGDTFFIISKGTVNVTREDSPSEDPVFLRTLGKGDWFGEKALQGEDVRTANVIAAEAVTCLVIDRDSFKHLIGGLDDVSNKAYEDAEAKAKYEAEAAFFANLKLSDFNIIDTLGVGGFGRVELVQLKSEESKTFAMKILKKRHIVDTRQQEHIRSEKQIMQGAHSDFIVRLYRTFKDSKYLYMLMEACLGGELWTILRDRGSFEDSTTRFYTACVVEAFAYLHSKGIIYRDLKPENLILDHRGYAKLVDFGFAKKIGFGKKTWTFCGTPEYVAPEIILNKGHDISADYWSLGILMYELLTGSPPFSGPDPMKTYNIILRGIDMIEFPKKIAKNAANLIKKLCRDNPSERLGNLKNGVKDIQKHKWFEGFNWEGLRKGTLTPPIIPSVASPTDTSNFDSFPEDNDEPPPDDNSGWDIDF
Procedure, shortened: as §1

Protein Kinase G = conditions: Rho kinase inhibitor, background statement; cited from earlier work

T1 sequence (O75116 11-552): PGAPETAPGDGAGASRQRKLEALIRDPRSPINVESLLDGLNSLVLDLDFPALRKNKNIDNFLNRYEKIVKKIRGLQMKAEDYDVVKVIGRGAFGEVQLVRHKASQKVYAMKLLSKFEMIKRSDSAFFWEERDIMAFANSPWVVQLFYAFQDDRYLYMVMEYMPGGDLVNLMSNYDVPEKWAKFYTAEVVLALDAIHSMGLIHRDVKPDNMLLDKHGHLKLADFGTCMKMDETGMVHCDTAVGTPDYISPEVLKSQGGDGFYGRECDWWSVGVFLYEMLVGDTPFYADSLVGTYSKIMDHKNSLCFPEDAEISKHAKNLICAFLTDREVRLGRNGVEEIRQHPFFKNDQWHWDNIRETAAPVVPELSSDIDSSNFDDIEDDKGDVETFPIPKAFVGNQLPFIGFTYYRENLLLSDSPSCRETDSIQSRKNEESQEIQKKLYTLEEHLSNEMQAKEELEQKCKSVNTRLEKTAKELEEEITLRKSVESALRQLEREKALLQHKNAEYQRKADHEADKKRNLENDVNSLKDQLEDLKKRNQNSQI

Row | Structure (SMILES) | IC50 [1] [nM] | Selectivity against PKA (recombinant human PKA) [fold] | Selectivity against PKG [2] [fold] | selectivity against Protein Kinase G (Protein Kinase G) [fold]
1 | NC(C1CC1)[C@]1(CCCC(F)(F)F)CC[C@H](Oc2cc3cc[nH]c(=O)c3cc2Cl)CC1 (stereo partly drawn) [Example 73, cis-6-[4-(Amino-cyclopropyl-methyl)-4-(4,4,4-trifluoro-butyl)-cyclohexyloxy]-7-chloro-2H-isoquinolin-1-one] | ≤ 10 | >1000 | >300 | –
2 | CCC(N)[C@]1(C2CC2)CC[C@H](Oc2cc3cc[nH]c(=O)c3cc2Cl)CC1 (stereo partly drawn) [Example 74, cis-6-[4-(1-Amino-propyl)-4-cyclopropyl-cyclohexyloxy]-7-chloro-2H-isoquinolin-1-one] | ≤ 10 | >1000 | >1000 | –
3 | NC(C1CC1)[C@]1(C2CC2)CC[C@H](Oc2cc3cc[nH]c(=O)c3cc2Cl)CC1 (stereo partly drawn) [Example 75, cis-6-[4-(Amino-cyclopropyl-methyl)-4-cyclopropyl-cyclohexyloxy]-7-chloro-2H-isoquinolin-1-one] | ≤ 10 | >1000 | >1000 | –
4 | CCC(N)[C@]1(C2CCSCC2)CC[C@H](Oc2cc3cc[nH]c(=O)c3cc2Cl)CC1 (stereo partly drawn) [Example 76, cis-6-[4-(1-Amino-propyl)-4-(tetrahydro-thiopyran-4-yl)-cyclohexyloxy]-7-chloro-2H-isoquinolin-1-one] | ≤ 10 | >1000 | >1000 | –
5 | CCC[C@]1(C(C)N)CC[C@@H](Oc2cc3cc[nH]c(=O)c3cc2Cl)CC1 (stereo partly drawn) [Example 77, cis-6-[4-(1-Amino-ethyl)-4-propyl-cyclohexyloxy]-7-chloro-2H-isoquinolin-1-one] | ≤ 10 | >1000 | >300 | –
6 | CC[C@]1(C(C)N)CC[C@@H](Oc2cc3cc[nH]c(=O)c3cc2F)CC1 (stereo partly drawn) [Example 78, cis-6-[4-(1-Amino-ethyl)-4-ethyl-cyclohexyloxy]-7-fluoro-2H-isoquinolin-1-one] | 10 to 100 | >300 | >100 | –
7 | CCC(N)[C@]1(C(C)C)CC[C@H](Oc2cc3c(F)c[nH]c(=O)c3cc2Cl)CC1 (stereo partly drawn) [Example 90, cis-6-[4-(1-Amino-propyl)-4-isopropyl-cyclohexyloxy]-7-chloro-4-fluoro-2H-isoquinolin-1-one] | 10 to 100 | >300 | >100 | –
8 | CC[C@]1(C(N)CF)CC[C@@H](Oc2cc3cc[nH]c(=O)c3cc2Cl)CC1 (stereo partly drawn) [Example 95, cis-6-[4-(1-Amino-2-fluoro-ethyl)-4-ethyl-cyclohexyloxy]-7-chloro-2H-isoquinolin-1-one] | ≤ 10 | >1000 | >300 | –
9 | CC[C@]1(C(N)CF)CC[C@H](Oc2cc3cc[nH]c(=O)c3cc2Cl)CC1 (stereo partly drawn) [Example 96, trans-6-[4-(1-Amino-2-fluoro-ethyl)-4-ethyl-cyclohexyloxy]-7-chloro-2H-isoquinolin-1-one] | 10 to 100 | >300 | >100 | –
10 | CCC(N)[C@]1(C2CCS(=O)(=O)CC2)CC[C@H](Oc2cc3cc[nH]c(=O)c3cc2Cl)CC1 (stereo partly drawn) [Example 99, cis-6-[4-(1-amino-propyl)-4-(1,1-dioxo-tetrahydrothiopyran-4-yl)-cyclohexyloxy]-7-chloro-2H-isoquinolin-1-one] | ≤ 10 | >1000 | >300 | –
11 | C[C@@H](N)[C@H]1CC[C@H](C(=O)Nc2ccncc2)CC1 [Example Y-27632] | – | – | – | 20
